Laboratory results reported in PubChem BioAssay (NCI).
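Test compounds were applied to cells in 96-well plates for 48 hours at 5 doses. At the GI50, growth is halved. TGI: concentration producing complete growth inhibition.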

Experiments:
Assay in all cases: growth of human tumour cells (NCI), 48 h
[1] = test system: ACHN renal
[2] = test system: MDA-MB-231 breast
[3] = test system: SNB-19 CNS
[4] = test system: NCI-H460 lung
[5] = test system: HOP-92 NSCLC
[6] = test system: MALME-3M melanoma
[7] = test system: HL-60(TB) leukemia
[8] = test system: NCI-H23 lung
[9] = test system: HOP-62 NSCLC
[10] = test system: T-47D breast
[11] = test system: HCT-116 colon
[12] = test system: M14 melanoma
[13] = test system: HS 578T breast
[14] = test system: NCI/ADR-RES ovarian
[15] = test system: SF-539 CNS
[16] = test system: SNB-75 CNS
[17] = test system: SK-MEL-28 melanoma
[18] = test system: COLO 205 colon
[19] = test system: TK-10 renal
[20] = test system: OVCAR-4 ovarian
[21] = test system: SW-620 colon
[22] = test system: UACC-62 melanoma
[23] = test system: NCI-H226 lung
[24] = test system: BT-549 breast
[25] = test system: HCC-2998 colon
[26] = test system: CAKI-1 renal
[27] = test system: HCT-15 colon
[28] = test system: OVCAR-5 ovarian
[29] = test system: MOLT-4 leukemia
[30] = test system: NCI-H522 lung
[31] = test system: HT29 colon
[32] = test system: LOX IMVI melanoma
[33] = test system: SR leukemia
[34] = test system: PC-3 prostate
[35] = test system: 786-0 renal
[36] = test system: SN12C renal
[37] = test system: RPMI-8226 leukemia
[38] = test system: DU-145 prostate
[39] = test system: MDA-MB-435
[40] = test system: SK-MEL-5 melanoma
[41] = test system: OVCAR-3 ovarian
[42] = test system: EKVX NSCLC
[43] = test system: MCF7 breast
[44] = test system: IGROV1 ovarian
[45] = test system: RXF 393 renal
[46] = test system: CCRF-CEM leukemia
[47] = test system: A498 renal
[48] = test system: U251 CNS
[49] = test system: UACC-257 melanoma
[50] = test system: SF-295 CNS
[51] = test system: SF-268 CNS
[52] = test system: SK-MEL-2 melanoma
[53] = test system: SK-OV-3 ovarian
[54] = test system: OVCAR-8 ovarian
[55] = test system: KM12 colon

SMILES: C[C@@H](O)[C@H]1C(=O)N2C(C(=O)O)=C(SCCN=CN)C[C@H]12
- GI50 [1]: 1.47 µM
- TGI [1]: 5.8 µM
- GI50 [2]: 2.16 µM
- TGI [2]: 8.04 µM
- GI50 [3]: 2.19 µM
- TGI [3]: 8.49 µM
- GI50 [4]: 1.58 µM
- TGI [4]: 5.73 µM
- GI50 [5]: 1.8 µM
- TGI [5]: 5.2 µM
- GI50 [6]: 1.69 µM
- TGI [6]: 3.33 µM
- GI50 [7]: 2.45 µM
- TGI [7]: 6.15 µM
- GI50 [8]: 1.81 µM
- TGI [8]: 4.78 µM
- GI50 [9]: 1.85 µM
- TGI [9]: 5.82 µM
- GI50 [10]: 2.65 µM
- TGI [10]: 9.34 µM
- GI50 [11]: 1.43 µM
- TGI [11]: 6.04 µM
- GI50 [12]: 1.86 µM
- TGI [12]: 3.52 µM
- GI50 [13]: 2.69 µM
- TGI [13]: 28.3 µM
- GI50 [14]: 1.85 µM
- TGI [14]: 6.22 µM
- GI50 [15]: 2.25 µM
- TGI [15]: 6.35 µM
- GI50 [16]: 2.12 µM
- TGI [16]: 5.1 µM
- GI50 [17]: 1.86 µM
- TGI [17]: 3.69 µM
- GI50 [18]: 1.38 µM
- TGI [18]: 3.22 µM
- GI50 [19]: 4.33 µM
- TGI [19]: > 100 µM
- GI50 [20]: 2.21 µM
- TGI [20]: 6.41 µM
- GI50 [21]: 0.744 µM
- TGI [21]: 10.4 µM
- GI50 [22]: 1.72 µM
- TGI [22]: 3.33 µM
- GI50 [23]: 1.55 µM
- TGI [23]: 3.52 µM
- GI50 [24]: 2.33 µM
- TGI [24]: 7.6 µM
- GI50 [25]: 1.81 µM
- TGI [25]: 3.89 µM
- GI50 [26]: 2.13 µM
- TGI [26]: 5.39 µM
- GI50 [27]: 2.96 µM
- TGI [27]: 11.1 µM
- GI50 [28]: 2.91 µM
- TGI [28]: 9.44 µM
- GI50 [29]: 2.32 µM
- TGI [29]: 6.26 µM
- GI50 [30]: 1.58 µM
- TGI [30]: 4.12 µM
- GI50 [31]: 3.1 µM
- TGI [31]: 18.3 µM
- GI50 [32]: 1.44 µM
- TGI [32]: 3.97 µM
- GI50 [33]: 1.56 µM
- TGI [33]: 4.94 µM
- GI50 [34]: 2.23 µM
- TGI [34]: 7.27 µM
- GI50 [35]: 2.98 µM
- TGI [35]: 11 µM
- GI50 [36]: 0.971 µM
- TGI [36]: 9.47 µM
- GI50 [37]: 1.9 µM
- TGI [37]: 6.71 µM
- GI50 [38]: 2.56 µM
- TGI [38]: 11.7 µM
- GI50 [39]: 2.38 µM
- TGI [39]: 6.01 µM
- GI50 [40]: 1.56 µM
- TGI [40]: 2.93 µM
- GI50 [41]: 2.95 µM
- TGI [41]: 84.1 µM
- GI50 [42]: 1.25 µM
- TGI [42]: 8.61 µM
- GI50 [43]: 2.89 µM
- TGI [43]: 11.2 µM
- GI50 [44]: 1.47 µM
- TGI [44]: 9.06 µM
- GI50 [45]: 1.55 µM
- TGI [45]: 3.58 µM
- GI50 [46]: 1.66 µM
- TGI [46]: 5.73 µM
- GI50 [47]: 0.853 µM
- TGI [47]: 2.44 µM
- GI50 [48]: 2.34 µM
- TGI [48]: 10.9 µM
- GI50 [49]: 1.8 µM
- TGI [49]: 3.78 µM
- GI50 [50]: 2.67 µM
- TGI [50]: 7.5 µM
- GI50 [51]: 1.73 µM
- TGI [51]: 5.36 µM
- GI50 [52]: 2.54 µM
- TGI [52]: 7.7 µM
- GI50 [53]: 1.38 µM
- TGI [53]: 15.8 µM
- GI50 [54]: 1.58 µM
- TGI [54]: 32.5 µM
- GI50 [55]: 1.48 µM
- TGI [55]: 11.4 µM
